Reference: publication PMC5306062, “Pharmacology and toxicology of the novel investigational agent Cantrixil (TRX-E-002-1)” (Cancer Chemotherapy and Pharmacology, 2016)
Like-named read-outs stand apart in the source and are kept apart here.

How the values were obtained:
[1] = Rat pharmacokinetics after single intraperitoneal injection of 100 mg/kg; format: in vivo, Sprague–Dawley rats
Method: The pharmacokinetics of TRX-E-002-1 was evaluated in male female Sprague–Dawley rats following a single intraperitoneal injection of 100 mg/kg TRX-E-002-1 in 20% SBECD vehicle. Absorption was rapid, with C max mean plasma concentrations reached 0.25/1 h after dosing in female/male rats. […] Mean plasma levels decreased to below the limit of quantification by 24 h (not shown). The AUC0−∞ value was 29,537 and 44,702 ng h/mL in female and male rats, respectively (Table 2). High tissue levels were observed 0.5–6 h after dosing, with levels higher than the plasma concentration in pancreas, ovaries, large intestine, skin, kidneys, liver, stomach and adrenal glands (not shown). Treatment of plasma and tissue samples with glucuronidase indicated the presence of low levels of a glucuronide conjugate of TRX-E-002-1 (not shown). Other metabolic pathways have not yet been investigated. […] Parent drug was excreted in the urine and faeces, and high levels of the glucuronide metabolite were found in the faeces.
Tissue concentrations of total drug (parent + glucuronide) were also similar to those in plasma except in liver, where they were 2–3 times higher.

[2] = Second dog pharmacokinetic study, 10 mg/kg intraperitoneal, four dogs; format: in vivo, beagle dogs; conditions: dog M + F, 10 mg/kg i.p., second study
Method: In beagle dogs, plasma concentrations of unconjugated TRX-E-002-1 at early time points (1–4 h’ post-dose) were 76–93% of the total levels (parent + glucuronide). At 8 h, the plasma concentrations of the glucuronide metabolites were similar to those of parent drug. By 24 h’ post-dose, the concentrations of TRX-E-002-1-glucuronide in plasma and gastrointestinal tissues (except colon) were 2–12 times higher than those of the parent drug. The increased levels of TRX-E-0021-glucuronide relative to those of parent drug at 24 h post-dose may reflect slower elimination of the glucuronide metabolites.

[3] = tested on: disseminated ovarian cancer model; assay: Disseminated ovarian cancer model, intraperitoneal dosing; format: in vivo, mice
Excerpt: In vivo, TRX-E-002-1, formulated in 20% SBECD, was active in a disseminated ovarian cancer model and a recurrent ovarian cancer model in which tumour recurrence is investigated following initial treatment of the OCSC2-inoculated mice with paclitaxel. In both models, TRX-E-002-1 inhibited tumour growth following once daily intraperitoneal administration.
The combination of TRX-E-002-1 and cisplatin was investigated in the murine model of disseminated ovarian cancer.

[4] = Dog 14-day pilot toxicity study with toxicokinetics, intraperitoneal; conditions: dog M + F, Day 1
Method: For the dog 14-day pilot study, male and female beagle dogs were dosed once daily with intraperitoneal injections of vehicle (1:2 dilutions of 20% SBECD in 0.9% saline) or Cantrixil (10, 30 or 100 mg/kg) for 14 days. The doses were administered via an implanted catheter.

[5] = tested on: micronucleated polychromatic erythrocytes (PCEs) in bone marrow; assay: Bone marrow micronucleus test; format: in vivo, ARC(S) Swiss mice; conditions: positive control group
Method: The assays were performed in compliance with GLP regulations.
The bone marrow micronucleus test was the in vivo part of the ICH genotoxicity testing battery and was conducted in ARC(S) Swiss mice. Eight groups of mice (10/sex/group) were given an intraperitoneal injection of vehicle (20% w/v SBECD) or Cantrixil at 50, 200 or 400 mg/kg and were killed 24 or 48 h later. Dimethyl-1,2 benzanthracene was used as the positive control. After preparation of the bone marrow cells, the number of micronucleated polychromatic erythrocytes (PCEs) was determined in 4000 PCEs per animal, and the proportion of PCEs in the total erythrocyte population in bone marrow was calculated from the examination of at least 500 erythrocytes as an index of bone marrow toxicity. […] The proportion of PCEs in the total erythrocyte population was decreased in both sexes at the 200 and 400 mg/kg doses at both kill times. TRX-E-002-1 is therefore considered clastogenic in this system at the described concentrations in vivo [the equivalent 200/400 mg/kg dose in a […] is 16.2 mg/kg (600 mg/m^2)/32.4 mg/kg (1200 mg/m^2) in a 60-kg human].

[6] = tested on: c-Jun N-terminal kinase; set-up: method as in PMID 27196760; conditions: cited from earlier work
[7] = tested on: mouse lymphoma L5178Y cells; assay: In vitro mammalian cell mutation assay, thymidine kinase locus
Method: Genotoxicity testing of TRX-E-002-1 was performed in an ICH-compliant test battery (see ICH Guideline S2A), comprising an in vitro bacterial reverse mutation test, an in vitro mammalian cell mutation assay and an in vivo rodent bone marrow micronucleus assay. The assays were performed in compliance with GLP regulations.
The in vitro mammalian cell mutation assay utilised the forward mutation system at the thymidine kinase locus of the mouse lymphoma L5178Y cells using a microtitre cloning technique. TRX-E-002-1 was tested in three experimental conditions: 3-h incubation at 37 °C with and without metabolic activation system (Aroclor-induced rat liver S9 mix), and a 24-h incubation without metabolic activation (i.e. continuous treatment).

[8] = female rats, 100 mg/kg i.p., plasma
[9] = 10 μM SP600125, OCSC2 cells, Western blot

In the case of COc1cc(C2COc3c(ccc(O)c3C)C2c2ccc(O)cc2)cc(OC)c1O (racemic) [TRX-E-002], the AUClast [1, 8] is reported as 29,396 ng h/mL, the C max [1, 8] is reported as 8355 ng/mL and the elimination half-life ([1]; rats, interspecies comparison) is reported as “about 2.5 h”. For the same compound, the “AUC0−∞” value [2] was 1633 ng·h/mL, the AUClast [2] was 1630 ng·h/mL and the C max [2] was 425 ng/mL. The T max [2] was 2 h, the “T ½” value [2] was 2.6 h and the tumour growth ([3]; 100 mg/kg i.p. once daily in 20% SBECD for 13–14 days) was “significantly inhibited”. For the same compound, the “AUC0−∞” value ([4]; 10 mg/kg i.p.) was 4395 ng·h/mL, the AUClast ([4]; 10 mg/kg i.p.) was 4390 ng·h/mL and the C max ([4]; 10 mg/kg i.p.) was 626 ng/mL. For the same compound, the T max ([4]; 10 mg/kg i.p.) was 2.0 h, the “T ½” value ([4]; 10 mg/kg i.p.) was 2.6 h and the “AUC0−∞” value ([4]; 30 mg/kg i.p.) was 11,300 ng h/mL. For the same compound, the AUClast ([4]; 30 mg/kg i.p.) was 8770 ng·h/mL, the T max ([4]; 30 mg/kg i.p.) was 2.0 h and the “T ½” value ([4]; 30 mg/kg i.p.) was 2.5 h. For the same compound, the “AUC0−∞” value ([4]; 100 mg/kg i.p.) was 58,550 ng h/mL, the AUClast ([4]; 100 mg/kg i.p.) was 58,500 ng h/mL and the C max ([4]; 100 mg/kg i.p.) was 6795 ng/mL. For the same compound, the T max ([4]; 100 mg/kg i.p.) was 1.25 h and the “T ½” value ([4]; 100 mg/kg i.p.) was 2.2 h.

With Cc1c2ccccc2c(C)c2c1ccc1ccccc12 [Dimethyl-1,2 benzanthracene, reference compound] the “frequency of micronucleated PCEs” value [5] was “statistically significant increase” and the “proportion of PCEs” value [5] was “reduction”.

For Oc1c2ccccc2c2c3c(cccc13)N=N2 [SP600125], the “TRX-E-002-1-induced phosphorylation of c-Jun” value [6, 9] is listed as “inhibited”, the “phosphorylation of ERK” value [6, 9] is listed as “without affecting” and the “effect on anti-tumour activity of 0.245 μM TRX-E-002-1” value ([6]; OCSC2 cells) is listed as “blocked”.

With N.N.[Cl][Pt][Cl] [cisplatin, reference compound] the “tumour growth during the 16-day treatment period” value ([3]; TRX-E-002-1 100 mg/kg once daily, cisplatin 5 mg/kg once weekly, or both) was “significantly inhibited” and the “tumour growth during the 5-week post-treatment period” value ([3]; after 16-day treatment, TRX-E-002-1 100 mg/kg once daily, cisplatin 5 mg/kg once weekly, or both) was “decreased”.

For O=P1(N(CCCl)CCCl)NCCCO1 (centres unmarked) [cyclophosphamide], the mutant frequency ([7]; positive control, presence of S9) was “expected increases”.

In the case of COS(C)(=O)=O [methyl methanesulfonate], the mutant frequency [7] is reported as “expected increases”.
